# Experimental data taken from ChEMBL document CHEMBL4732075, “PROTACs suppression of GSK-3β, a crucial kinase in neurodegenerative diseases” (Eur J Med Chem, 2021).
# Activity calls are given as the source filed them. The rule behind the calls is not given here.
# Assays:
# [1] = molecular target: T1, Glycogen synthase kinase-3 beta (Homo sapiens, UniProt P49841); test: Inhibition of N-terminal His6-tagged recombinant human GSK3beta H350L mutant expressed in baculovirus infected Sf21 cells using GSM as substrate incubated for 30 mins in presence of ATP by Kinase-Glo luminescent assay
# Target sequence in this assay (P49841 whole entry): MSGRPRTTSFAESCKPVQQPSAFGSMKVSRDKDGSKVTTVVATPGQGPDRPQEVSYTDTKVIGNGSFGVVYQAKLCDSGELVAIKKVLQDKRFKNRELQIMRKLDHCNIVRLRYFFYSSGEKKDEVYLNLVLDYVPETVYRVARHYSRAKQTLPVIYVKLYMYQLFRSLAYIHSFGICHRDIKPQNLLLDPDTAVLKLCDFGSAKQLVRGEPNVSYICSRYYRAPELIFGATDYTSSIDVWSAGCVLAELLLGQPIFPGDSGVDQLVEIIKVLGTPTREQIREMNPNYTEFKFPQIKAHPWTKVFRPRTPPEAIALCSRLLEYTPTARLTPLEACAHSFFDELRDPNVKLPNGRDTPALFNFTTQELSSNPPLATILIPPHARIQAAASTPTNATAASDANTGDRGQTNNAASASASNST
# [2] = molecular target: T2, Protein cereblon/Glycogen synthase kinase-3 beta (Rattus norvegicus) (UniProt P18266+Q56AP7); test: Protac activity at CRBN/GSK3beta in rat PC12 cells assessed as GSK3beta degradation by measuring GSK3beta protein level at 10 uM after 10 hrs by Western blotting analysis; format: cell-based; conditions: PC-12
# [3] = molecular target: T2, Protein cereblon/Glycogen synthase kinase-3 beta (Rattus norvegicus); test: Protac activity at CRBN/GSK3beta in rat PC12 cells assessed as GSK3beta degradation by measuring GSK3beta protein level at 20 uM after 10 hrs by Western blotting analysis (reference value: 100 %); format: cell-based; conditions: PC-12
# BV-2 = test: Anti-neuroinflammatory activity in mouse BV2 cells assessed as reduction in LPS-induced TNFalpha production at 5 uM pretreated for 5 hrs followed by LPS challenge and measured after 24 hrs by immunofluorescence confocal microscopic analysis; format: functional, cell-based; conditions: time 29.0 hrs
# [4] = molecular target: T3, Mitogen-activated protein kinase 13 (Homo sapiens) (UniProt O15264); test: Inhibition of p38delta (unknown origin) at 300 nM relative to control
# T3 sequence (whole entry): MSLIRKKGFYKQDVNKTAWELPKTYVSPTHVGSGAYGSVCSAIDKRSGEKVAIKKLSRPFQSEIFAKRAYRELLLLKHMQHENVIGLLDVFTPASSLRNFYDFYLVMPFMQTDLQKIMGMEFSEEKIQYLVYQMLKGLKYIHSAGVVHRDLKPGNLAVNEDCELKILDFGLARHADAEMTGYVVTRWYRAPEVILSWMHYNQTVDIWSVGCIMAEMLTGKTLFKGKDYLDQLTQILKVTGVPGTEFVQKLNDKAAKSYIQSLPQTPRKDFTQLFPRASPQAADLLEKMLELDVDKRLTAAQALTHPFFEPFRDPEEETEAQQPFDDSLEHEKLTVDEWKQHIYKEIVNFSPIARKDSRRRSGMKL
# [5] = molecular target: Cyclin-dependent kinase 4 (Homo sapiens) (UniProt P11802); test: Inhibition of CDK4 (unknown origin) at 300 nM relative to control
# [6] = molecular target: T2, Protein cereblon/Glycogen synthase kinase-3 beta (Rattus norvegicus); test: Protac activity at CRBN/GSK3beta in rat PC12 cells assessed as GSK3beta degradation by measuring GSK3beta protein level at […] preincubated for 2 hrs with proteasome inhibitor, MG132 followed by compound addition and measured after 8 hrs by Western blotting analysis (reference value: 100 %); format: cell-based; set-up: scale not given: the % may be the effect or the level left; conditions: PC-12, dose 8.3 µM
# [7] = molecular target: Mitogen-activated protein kinase 1 (Homo sapiens) (UniProt P28482); test: Inhibition of ERK2 (unknown origin) at 300 nM relative to control
# [8] = molecular target: T2, Protein cereblon/Glycogen synthase kinase-3 beta (Rattus norvegicus); test: Protac activity at CRBN/GSK3beta in rat PC12 cells assessed as GSK3beta degradation by measuring GSK3beta protein level at 25 uM after 10 hrs by Western blotting analysis (reference value: 100 %); format: cell-based; conditions: PC-12
# [9] = molecular target: Mitogen-activated protein kinase 10 (Homo sapiens) (UniProt P53779); test: Inhibition of JNK3 (unknown origin) at 300 nM relative to control
# [10] = molecular target: Cyclin-dependent kinase 7 (Homo sapiens) (UniProt P50613); test: Inhibition of CDK7 (unknown origin) at 300 nM relative to control
# [11] = molecular target: T2, Protein cereblon/Glycogen synthase kinase-3 beta (Rattus norvegicus); test: Protac activity at CRBN/GSK3beta in rat PC12 cells assessed as GSK3beta degradation by measuring GSK3beta protein level at […] after 10 hrs by Western blotting analysis (reference value: 100 %); format: cell-based; conditions: PC-12, dose 8.3 µM
# [12] = molecular target: T2, Protein cereblon/Glycogen synthase kinase-3 beta (Rattus norvegicus); test: Protac activity at CRBN/GSK3beta in rat PC12 cells assessed as GSK3beta degradation by measuring GSK3beta protein level at 2.8 uM after 10 hrs by Western blotting analysis (reference value: 100 %); format: cell-based; conditions: PC-12
# [13] = molecular target: Dual specificity tyrosine-phosphorylation-regulated kinase 1B (Homo sapiens) (UniProt Q9Y463); test: Inhibition of DYRK1beta (unknown origin) at 300 nM relative to control
# [14] = molecular target: Mitogen-activated protein kinase 14 (Homo sapiens) (UniProt Q16539); test: Inhibition of p38alpha (unknown origin) at 300 nM relative to control
# [15] = molecular target: Cyclin-dependent kinase 1 (Homo sapiens) (UniProt P06493); test: Inhibition of CDK1 (unknown origin) at 300 nM relative to control
# [16] = molecular target: T2, Protein cereblon/Glycogen synthase kinase-3 beta (Rattus norvegicus); test: Protac activity at CRBN/GSK3beta in rat PC12 cells assessed as GSK3beta degradation by measuring GSK3beta protein level at […] preincubated for 2 hrs with […] ligand, pomalidomide followed by compound addition and measured after 8 hrs by Western blotting analysis (reference value: 100 %); format: cell-based; conditions: PC-12, dose 8.3 µM
# [17] = molecular target: Mitogen-activated protein kinase 9 (Homo sapiens) (UniProt P45984); test: Inhibition of JNK2 (unknown origin) at 300 nM relative to control
# [18] = molecular target: Mitogen-activated protein kinase 11 (Homo sapiens) (UniProt Q15759); test: Inhibition of p38beta (unknown origin) at 300 nM relative to control
# [19] = molecular target: T2, Protein cereblon/Glycogen synthase kinase-3 beta (Rattus norvegicus); test: Protac activity at CRBN/GSK3beta in rat PC12 cells assessed as GSK3beta degradation by measuring reduction in GSK3beta protein level after 10 hrs by Western blotting analysis; format: cell-based; conditions: PC-12, dose 2.8-25 µM
# [20] = molecular target: T1, Glycogen synthase kinase-3 beta; test: Inhibition of GSK3beta (unknown origin) at 300 nM relative to control
# Target sequence in this assay (P49841 whole entry, looked up): as the sequence (P49841 whole entry) above
# [21] = molecular target: Glycogen synthase kinase-3 alpha (Homo sapiens) (UniProt P49840); test: Inhibition of GSK3alpha (unknown origin) at 300 nM relative to control
# [22] = molecular target: Dual specificity tyrosine-phosphorylation-regulated kinase 1A (Homo sapiens) (UniProt Q13627); test: Inhibition of DYRK1alpha (unknown origin) at 300 nM relative to control
# [23] = molecular target: T2, Protein cereblon/Glycogen synthase kinase-3 beta (Rattus norvegicus); test: Protac activity at CRBN/GSK3beta in rat PC12 cells assessed as GSK3beta degradation by measuring GSK3beta protein level at […] preincubated for 2 hrs with GSK3beta inhibitor, G1 followed by compound addition and measured after 8 hrs by Western blotting analysis (reference value: 100 %); format: cell-based; set-up: scale not given: the % may be the effect or the level left; conditions: PC-12, dose 8.3 µM
# [24] = molecular target: Mitogen-activated protein kinase 3 (Homo sapiens) (UniProt P27361); test: Inhibition of ERK1 (unknown origin) at 300 nM relative to control
# [25] = molecular target: Cyclin-dependent kinase 9 (Homo sapiens) (UniProt P50750); test: Inhibition of CDK9 (unknown origin) at 300 nM relative to control
# HT-22 = test: Neuroprotective activity against glutamate-induced cell death in mouse HT22 cells at 5 uM preincubated for 10 hrs followed by glutamate challenge and measured after 24 hrs by fluorescence inverted microscopic analysis; format: functional, cell-based
# T2 sequence (P18266 whole entry, looked up): as the sequence (P49841 whole entry) above, with V240M, T390P, T392A, A400T, T402A counted along it
# T2 sequence (Q56AP7 whole entry, looked up): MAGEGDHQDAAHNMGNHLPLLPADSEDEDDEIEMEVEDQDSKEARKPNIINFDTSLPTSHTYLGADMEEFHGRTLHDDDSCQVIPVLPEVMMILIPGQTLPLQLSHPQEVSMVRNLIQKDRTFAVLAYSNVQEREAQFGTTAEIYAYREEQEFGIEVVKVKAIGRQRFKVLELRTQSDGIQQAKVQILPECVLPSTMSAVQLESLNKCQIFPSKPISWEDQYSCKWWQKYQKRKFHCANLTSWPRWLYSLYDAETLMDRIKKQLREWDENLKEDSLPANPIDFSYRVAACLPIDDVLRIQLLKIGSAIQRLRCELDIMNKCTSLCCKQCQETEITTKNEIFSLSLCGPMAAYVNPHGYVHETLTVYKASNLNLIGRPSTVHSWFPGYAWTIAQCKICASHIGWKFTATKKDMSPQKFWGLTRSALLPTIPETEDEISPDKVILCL
# Mitogen-activated protein kinase 1 (Homo sapiens), sequence (P28482 whole entry): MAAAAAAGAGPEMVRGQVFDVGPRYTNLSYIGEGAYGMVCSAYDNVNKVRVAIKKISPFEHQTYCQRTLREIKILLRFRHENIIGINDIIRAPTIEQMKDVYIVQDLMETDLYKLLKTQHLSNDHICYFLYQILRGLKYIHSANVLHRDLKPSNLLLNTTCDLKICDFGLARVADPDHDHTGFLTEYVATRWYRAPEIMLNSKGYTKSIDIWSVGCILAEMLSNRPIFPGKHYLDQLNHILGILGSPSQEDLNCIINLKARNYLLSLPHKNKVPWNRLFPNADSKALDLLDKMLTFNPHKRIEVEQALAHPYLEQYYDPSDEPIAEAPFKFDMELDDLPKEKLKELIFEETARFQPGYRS
# Mitogen-activated protein kinase 3 (Homo sapiens), sequence (P27361 whole entry): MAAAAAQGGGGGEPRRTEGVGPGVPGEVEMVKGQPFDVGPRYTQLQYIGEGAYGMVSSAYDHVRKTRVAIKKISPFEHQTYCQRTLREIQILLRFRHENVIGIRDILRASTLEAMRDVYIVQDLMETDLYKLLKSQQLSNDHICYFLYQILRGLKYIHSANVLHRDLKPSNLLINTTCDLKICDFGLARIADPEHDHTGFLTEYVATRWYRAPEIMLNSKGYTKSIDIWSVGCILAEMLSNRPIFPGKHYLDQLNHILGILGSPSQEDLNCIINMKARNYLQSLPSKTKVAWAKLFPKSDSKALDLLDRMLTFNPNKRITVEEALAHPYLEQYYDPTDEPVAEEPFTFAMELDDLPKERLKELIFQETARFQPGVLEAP
# Cyclin-dependent kinase 4 (Homo sapiens), sequence (P11802 whole entry): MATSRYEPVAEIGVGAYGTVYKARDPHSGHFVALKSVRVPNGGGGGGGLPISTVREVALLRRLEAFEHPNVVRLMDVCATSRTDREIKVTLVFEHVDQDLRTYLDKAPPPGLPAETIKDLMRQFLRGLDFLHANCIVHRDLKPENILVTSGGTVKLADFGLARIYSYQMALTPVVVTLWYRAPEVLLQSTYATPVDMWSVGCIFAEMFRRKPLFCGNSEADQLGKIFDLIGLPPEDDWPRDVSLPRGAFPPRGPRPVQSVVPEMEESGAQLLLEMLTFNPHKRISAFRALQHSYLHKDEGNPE
# Mitogen-activated protein kinase 11 (Homo sapiens), sequence (Q15759 whole entry): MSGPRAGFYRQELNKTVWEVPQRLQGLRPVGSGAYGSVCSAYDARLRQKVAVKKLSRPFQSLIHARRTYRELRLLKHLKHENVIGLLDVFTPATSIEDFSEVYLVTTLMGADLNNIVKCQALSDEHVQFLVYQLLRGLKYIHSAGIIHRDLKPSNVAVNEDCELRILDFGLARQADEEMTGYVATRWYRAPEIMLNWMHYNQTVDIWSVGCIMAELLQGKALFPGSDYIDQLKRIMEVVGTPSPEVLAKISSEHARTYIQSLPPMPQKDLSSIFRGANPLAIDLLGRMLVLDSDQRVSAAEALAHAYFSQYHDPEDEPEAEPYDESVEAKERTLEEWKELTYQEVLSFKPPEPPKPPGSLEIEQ
# Glycogen synthase kinase-3 alpha (Homo sapiens), sequence (P49840 2-483 limits assumed): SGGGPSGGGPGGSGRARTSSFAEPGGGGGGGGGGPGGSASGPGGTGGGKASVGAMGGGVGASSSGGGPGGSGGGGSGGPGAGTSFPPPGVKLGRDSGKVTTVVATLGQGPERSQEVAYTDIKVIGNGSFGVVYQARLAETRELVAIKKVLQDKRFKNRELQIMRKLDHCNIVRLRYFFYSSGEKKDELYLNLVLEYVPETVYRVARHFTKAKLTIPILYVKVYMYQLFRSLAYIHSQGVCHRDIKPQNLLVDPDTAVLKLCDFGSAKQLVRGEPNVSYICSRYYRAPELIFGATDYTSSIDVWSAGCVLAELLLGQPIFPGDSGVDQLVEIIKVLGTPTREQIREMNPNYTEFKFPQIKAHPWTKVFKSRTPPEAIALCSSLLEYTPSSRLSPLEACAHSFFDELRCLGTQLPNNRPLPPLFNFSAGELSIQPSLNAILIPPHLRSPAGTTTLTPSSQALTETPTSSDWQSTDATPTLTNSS
# Mitogen-activated protein kinase 10 (Homo sapiens), sequence (P53779 whole entry): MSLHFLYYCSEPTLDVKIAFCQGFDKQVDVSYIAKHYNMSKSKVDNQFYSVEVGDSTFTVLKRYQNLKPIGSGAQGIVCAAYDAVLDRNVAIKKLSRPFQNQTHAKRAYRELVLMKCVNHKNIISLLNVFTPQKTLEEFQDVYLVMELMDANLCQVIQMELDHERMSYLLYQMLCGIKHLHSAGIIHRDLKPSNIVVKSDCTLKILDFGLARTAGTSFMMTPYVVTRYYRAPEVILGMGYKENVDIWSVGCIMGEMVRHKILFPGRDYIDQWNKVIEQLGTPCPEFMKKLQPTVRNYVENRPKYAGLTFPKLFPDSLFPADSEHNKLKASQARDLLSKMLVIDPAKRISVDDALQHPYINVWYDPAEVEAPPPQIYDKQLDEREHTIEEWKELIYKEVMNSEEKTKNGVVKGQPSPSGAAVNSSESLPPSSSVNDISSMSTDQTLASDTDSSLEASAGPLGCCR
# Cyclin-dependent kinase 1 (Homo sapiens), sequence (P06493 whole entry, looked up): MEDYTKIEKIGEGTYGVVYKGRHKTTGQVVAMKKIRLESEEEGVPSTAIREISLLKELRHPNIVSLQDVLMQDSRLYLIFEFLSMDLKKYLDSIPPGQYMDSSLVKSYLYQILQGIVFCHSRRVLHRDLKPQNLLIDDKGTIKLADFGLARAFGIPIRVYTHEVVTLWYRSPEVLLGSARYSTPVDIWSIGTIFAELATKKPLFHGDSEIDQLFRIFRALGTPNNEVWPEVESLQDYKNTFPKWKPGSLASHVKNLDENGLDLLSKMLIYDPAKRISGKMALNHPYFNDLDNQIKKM
# Mitogen-activated protein kinase 9 (Homo sapiens), sequence (P45984 whole entry, looked up): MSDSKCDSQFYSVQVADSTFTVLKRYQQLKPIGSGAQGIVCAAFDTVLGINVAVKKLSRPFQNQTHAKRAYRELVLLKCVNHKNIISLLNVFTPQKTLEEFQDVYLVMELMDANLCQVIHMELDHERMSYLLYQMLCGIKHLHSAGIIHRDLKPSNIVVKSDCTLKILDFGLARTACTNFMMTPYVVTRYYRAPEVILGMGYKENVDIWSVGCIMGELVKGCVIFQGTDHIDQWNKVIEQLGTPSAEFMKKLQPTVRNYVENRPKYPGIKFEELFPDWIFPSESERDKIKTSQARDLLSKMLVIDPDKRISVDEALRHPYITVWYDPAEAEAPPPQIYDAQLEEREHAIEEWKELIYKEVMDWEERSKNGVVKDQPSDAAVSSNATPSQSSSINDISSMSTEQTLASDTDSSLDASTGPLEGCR
# Cyclin-dependent kinase 9 (Homo sapiens), sequence (P50750 whole entry): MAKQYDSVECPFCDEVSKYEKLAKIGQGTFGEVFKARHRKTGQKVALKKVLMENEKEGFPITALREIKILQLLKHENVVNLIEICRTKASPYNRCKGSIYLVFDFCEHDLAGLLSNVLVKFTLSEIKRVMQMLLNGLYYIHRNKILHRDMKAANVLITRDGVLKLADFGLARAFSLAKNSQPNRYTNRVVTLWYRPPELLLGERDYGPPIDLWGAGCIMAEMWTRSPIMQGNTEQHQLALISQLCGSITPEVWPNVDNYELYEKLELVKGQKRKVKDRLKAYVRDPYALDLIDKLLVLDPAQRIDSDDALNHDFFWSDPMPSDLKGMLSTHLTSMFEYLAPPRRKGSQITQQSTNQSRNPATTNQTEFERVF
# Mitogen-activated protein kinase 14 (Homo sapiens), sequence (Q16539 whole entry): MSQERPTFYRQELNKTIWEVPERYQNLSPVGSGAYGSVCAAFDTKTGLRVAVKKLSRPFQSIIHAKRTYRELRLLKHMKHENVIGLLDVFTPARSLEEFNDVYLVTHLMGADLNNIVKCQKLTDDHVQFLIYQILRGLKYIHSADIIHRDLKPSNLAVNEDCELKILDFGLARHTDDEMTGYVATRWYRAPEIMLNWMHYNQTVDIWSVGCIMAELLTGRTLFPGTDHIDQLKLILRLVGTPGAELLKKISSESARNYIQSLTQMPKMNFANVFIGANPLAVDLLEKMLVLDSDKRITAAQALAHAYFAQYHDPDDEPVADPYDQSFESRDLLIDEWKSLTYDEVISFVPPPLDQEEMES
compound,measurement,setting,value
CNC(=O)c1sc(-c2ccnc(NC(=O)C3CC3)c2)nc1OCCC#Cc1cccc2c1CN(C1CCC(=O)NC1=O)C2=O (stereo not drawn),IC50,[1],> 1000 nM
CNC(=O)c1sc(-c2ccnc(NC(=O)C3CC3)c2)nc1OCCOCCOCCn1cc(COc2cccc3c2C(=O)N(C2CCC(=O)NC2=O)C3=O)nn1 (stereo not drawn),IC50,[1],46.9 nM
same,GSK3beta protein level remaining,[2],62.7%
CNC(=O)c1sc(-c2ccnc(NC(=O)C3CC3)c2)nc1OCCOCC#Cc1cccc2c1CN(C1CCC(=O)NC1=O)C2=O (stereo not drawn),IC50,[1],49.2 nM
same,GSK3beta protein level remaining,[2],89.7%
CNC(=O)c1sc(-c2ccnc(NC(=O)C3CC3)c2)nc1OCCCCCCOc1cccc2c1C(=O)N(C1CCC(=O)NC1=O)C2=O (stereo not drawn),IC50,[1],71.6 nM
NC(=O)c1sc(-c2ccnc(NC(=O)C3CC3)c2)nc1OCCOCC#Cc1ccc2c(c1)C(=O)N(C1CCC(=O)NC1=O)C2=O (stereo not drawn),IC50,[1],27.7 nM
same,GSK3beta protein level remaining,[2],75.3%
CNC(=O)c1sc(-c2ccnc(NC(=O)C3CC3)c2)nc1OCCCCCCCCCCOc1cccc2c1C(=O)N(C1CCC(=O)NC1=O)C2=O (stereo not drawn),IC50,[1],70.4 nM
same,GSK3beta protein level remaining,[2],85.6%
NC(=O)c1sc(-c2ccnc(NC(=O)C3CC3)c2)nc1OCCOCC#Cc1cccc2c1CN(C1CCC(=O)NC1=O)C2=O (stereo not drawn),IC50,[1],63.8 nM
same,GSK3beta protein level remaining,[2],86.9%
CNC(=O)c1sc(-c2ccnc(NC(=O)C3CC3)c2)nc1OCCOCCOCCOc1cccc2c1C(=O)N(C1CCC(=O)NC1=O)C2=O (stereo not drawn),IC50,[1],105 nM
same,GSK3beta protein level remaining,[2],92.8%
Nc1cccc2c1C(=O)N(C1CCC(=O)NC1=O)C2=O (stereo not drawn),GSK3beta protein level remaining,[2],109%
COc1nc(-c2ccnc(NC(=O)C3CC3)c2)sc1C(=O)NCCCCNC(=O)COc1cccc2c1C(=O)N(C1CCC(=O)NC1=O)C2=O (stereo not drawn),IC50,[1],639 nM
CNC(=O)c1sc(-c2ccnc(NC(=O)C3CC3)c2)nc1OCCOCCOCCOCCOc1cccc2c1C(=O)N(C1CCC(=O)NC1=O)C2=O (stereo not drawn),IC50,[1],73.2 nM
same,GSK3beta protein level remaining,[2],71.2%
CNC(=O)c1sc(-c2ccnc(NC(=O)C3CC3)c2)nc1OCCOCCOCCOCCn1cc(COc2cccc3c2C(=O)N(C2CCC(=O)NC2=O)C3=O)nn1 (stereo not drawn),IC50,[1],79.5 nM
same,GSK3beta protein level remaining,[2],54%
CNC(=O)c1sc(-c2ccnc(NC(=O)C3CC3)c2)nc1OCCCCCCCCOc1cccc2c1C(=O)N(C1CCC(=O)NC1=O)C2=O (stereo not drawn),IC50,[1],23.8 nM
same,GSK3beta protein level remaining,[2],95.6%
CNC(=O)c1sc(-c2ccnc(NC(=O)C3CC3)c2)nc1OCCCC#Cc1cccc2c1CN(C1CCC(=O)NC1=O)C2=O (stereo not drawn),IC50,[1],295 nM
same,GSK3beta protein level remaining,[2],85.1%
NC(=O)c1sc(-c2ccnc(NC(=O)C3CC3)c2)nc1O,GSK3beta protein level remaining,[2],104%
same,Activity,[3],111%
COc1nc(-c2ccnc(NC(=O)C3CC3)c2)sc1C(=O)NCCCCCCNC(=O)COc1cccc2c1C(=O)N(C1CCC(=O)NC1=O)C2=O (stereo not drawn),IC50,[1],243 nM
CNC(=O)c1sc(-c2ccnc(NC(=O)C3CC3)c2)nc1OCCCCCCCCCCCCOc1cccc2c1C(=O)N(C1CCC(=O)NC1=O)C2=O (stereo not drawn),IC50,[1],98 nM
same,GSK3beta protein level remaining,[2],58.1%
CNC(=O)c1sc(-c2ccnc(NC(=O)C3CC3)c2)nc1OCCCCCCCCn1cc(COc2cccc3c2C(=O)N(C2CCC(=O)NC2=O)C3=O)nn1 (stereo not drawn),IC50,[1],83.1 nM
same,Activity,BV-2,Active
same,inhibition,[4],18.4%
same,inhibition,[5],4.09%
same,Activity,[6],96.6%
same,inhibition,[7],5.84%
same,GSK3beta protein level remaining,[2],25.2%
same,Activity,[8],16.7%
same,inhibition,[9],13.8%
same,inhibition,[10],3.65%
same,Activity,[11],36.5%
same,Activity,[12],55.8%
same,inhibition,[13],19.6%
same,inhibition,[14],5.63%
same,inhibition,[15],4.01%
same,Activity,[16],109%
same,inhibition,[17],1.78%
same,inhibition,[18],6.94%
same,Activity,[19],Dose-dependent effect
same,inhibition,[20],81.5%
same,inhibition,[21],88.9%
same,inhibition,[22],40.4%
same,Activity,[23],102%
same,inhibition,[24],6.79%
same,inhibition,[25],3.27%
same,Activity,HT-22,Active
NC(=O)c1sc(-c2ccnc(NC(=O)C3CC3)c2)nc1OCCC#Cc1ccc2c(c1)C(=O)N(C1CCC(=O)NC1=O)C2=O (stereo not drawn),IC50,[1],> 1000 nM
CNC(=O)c1sc(-c2ccnc(NC(=O)C3CC3)c2)nc1OCCCC#Cc1ccc2c(c1)C(=O)N(C1CCC(=O)NC1=O)C2=O (stereo not drawn),IC50,[1],79.1 nM
same,GSK3beta protein level remaining,[2],99.2%
COc1nc(-c2ccnc(NC(=O)C3CC3)c2)sc1C(=O)NCCCNC(=O)COc1cccc2c1C(=O)N(C1CCC(=O)NC1=O)C2=O (stereo not drawn),IC50,[1],874 nM
CNC(=O)c1sc(-c2ccnc(NC(=O)C3CC3)c2)nc1OCCOCCOCCOCCOCCOc1cccc2c1C(=O)N(C1CCC(=O)NC1=O)C2=O (stereo not drawn),IC50,[1],69.3 nM
same,GSK3beta protein level remaining,[2],95.5%
CNC(=O)c1sc(-c2ccnc(NC(=O)C3CC3)c2)nc1OCCOCC#Cc1ccc2c(c1)C(=O)N(C1CCC(=O)NC1=O)C2=O (stereo not drawn),IC50,[1],19.7 nM
same,GSK3beta protein level remaining,[2],68.8%
